Measured values reported in US20240307589A1, “LEPTIN RECEPTOR AFFINITY PEPTIDE AND USE THEREOF” (Dubu Biosciences, priority 2021, published 2024).
No end group written: not given here. *: point of attachment. FITC = O=C1OC2(c3ccc(O)cc3Oc3cc(O)ccc32)c2ccc(NC(=S)*)cc21

Tests used:
rat lung injury site = assay: Recruitment of endogenous MSCs to peptide-bound collagen sponge implanted into rat lung injury site (flow cytometry); assay type: in vivo; conditions: rat lung defect, 12 h, 24 h or 48 h after implantation, vs control groups; FIGS. 6A to 6F
Experimental: Rats weighing about 150 g were anesthetized, intubated and subjected to partial resection on middle lobes of right lungs in the case of positive pressure ventilation of ventilators, where lung tissues with a size of about 0.5 cm*0.5 cm*0.3 cm were resected, and the collagen sponges which had been uniformly added dropwise with the CBD-affinity peptide or the control peptides and incubated for 2 h at 37° C. in advance were implanted into rat lung defect sites, respectively. After the rats were sacrificed after 12 h, 24 h or 48 h, respectively, the implanted collagen sponges were completely separated and taken out. The collagen sponges were dissolved with a collagenase, and cells adsorbed on the collagen sponges in vivo were separated and collected. Through identification of expression of CD45, CD44, CD71 and CD90 on surfaces of the cells, proportions of the numbers of MSCs adsorbed on the collagen sponges at the implantation sites were analyzed. The proportions that the MSCs accounted for in the cells digested from the collagen sponges were detected by flow cytometry.

rat lung injury sites = assay: Lung injury repair after implantation of peptide-bound collagen sponge (Masson's staining); assay type: in vivo; conditions: 35 days after implantation, vs control groups, FIG. 7
Excerpt: After a CBD-affinity peptide and control peptides were implanted into rat lung injury sites according to the above method, lung tissues were taken out 35 days later and subjected to pathological identification.

human MSCs = assay: Binding recovery of phage to human MSCs (elution and titration); assay type: cell-based; conditions: vs M13KE negative control phage, FIG. 2A
Experimental: (§1) An HY7 phage monoclone and an M13KE negative control phage were amplified with reference to the method in Example 1 and titrated. The HY7 phage monoclone and the M13KE negative control phage were added to well plates containing human MSCs with a confluence pre-cultured to about 80%, and an unrelated human bone marrow stromal cell line HS-5 was set as a control. The HY7 phage monoclone and the M13KE negative control phage were subjected to binding and elution according to a step of screening phages to obtain an eluent of the HY7 phage binding to the target protein and an eluent of the M13KE negative control phage binding to the target protein, respectively. The eluent of the HY7 phage binding to the target protein and the eluent of the M13KE negative control phage binding to the target protein were titrated according to a phage titration method. The binding of the HY7 phage monoclone to the target molecule and the binding of the M13KE negative control phage to the target molecule were compared. […] FIG. 2A is a schematic diagram illustrating the binding recovery of an HY7 phage monoclone and an M13KE negative control phage to human MSCs, and FIG. 2B is a schematic diagram illustrating the binding recovery of an HY7 phage monoclone and an M13KE negative control phage to HS-5 cells.

[1] = test system: human bone marrow stromal cell line HS-5; assay: Binding recovery of phage to control HS-5 cells (elution and titration); assay type: cell-based; conditions: FIG. 2B
Experimental: as §1

rat MSCs = assay: Binding of FITC-labeled peptide to rat MSCs by flow cytometry; assay type: cell-based; conditions: FITC-labeled peptides, vs M7, FIG. 4
Excerpt: To evaluate the species specificity of the HY7 peptide and provide a basis for subsequent animal experiments, the binding of HY7 to rat MSCs was specifically verified. Rat bone marrow cells were acquired according to a conventional method and subjected to culture and identification, and rat MSCs were obtained. The binding of an FITC-HY7 peptide and an FITC-M7 peptide to the rat MSCs was detected according to the above flow cytometry detection method.

| Substance | MSCs adsorbed to the collagen sponge (proportion of MSCs in cells digested from sponge) (rat lung injury site) | repair effect at the tissue site (rat lung injury sites) | binding to surfaces of the MSCs (binding recovery) (human MSCs) | binding to the control cells HS-5 (binding recovery) [1] | binding ability to the rat MSCs (rat MSCs) |
| --- | --- | --- | --- | --- | --- |
| CBD-HY7: CBD (TKKTLRT) on the N-terminus of HY7 through a linker (GGGGS or GGG-K-FITC) (TKKTLRTGGGK(FITC)HGGVRLY) | can adsorb more MSCs to the collagen sponge in a short time | better repair effect |  |  |  |
| HGGVRLY (Leptin receptor affinity peptide) [HY7] |  |  | can specifically binds to surfaces of the MSCs | does not bind | significantly stronger than that of M7 |
